In patent US20250134790A1, “ANTIMICROBIAL COMPOSITIONS” (Firmenich SA, priority 2021, published 2025):
Like-named read-outs stand apart in the source and are kept apart here.

Test system: Escherichia coli ATCC 10536
Assay: Robotic bacteria contact time (BCT) test of perfume ingredients in surfactant bases (EN-1276 based)
Assay type: cell-based
Conditions: contact time 45 seconds; for log reduction at 1 % / log reduction at 0.5 %: Escherichia coli, ATCC10536, 45 s; for log reduction at 1 % / Log reduction: surfactant base B, perfume ingredient 1% wt; for log reduction at 0.5 %: surfactant base A, perfume ingredient 0.5 % wt
Procedure: a. Preparation of Test Samples
Test samples were prepared by mixing perfume ingredients with the surfactant bases and vigorously stirred for 24 hrs. Samples with transparent appearance were selected for antimicrobial testing.
b. Measurement of Antimicrobial Efficacy of Fragrance Materials in Surfactant Systems
Preparation of screening plate and dilution plate: Aliquots (270 μl) of compositions were dispensed into the wells of a 96-well microtiter plate (MTP) along two columns (B1-H1, and B7-H7), and 270 μl of MilliQ water was added to well A1 and A7 as the control samples. This MTP was labelled as the “Screening plate”. In another MTP, labelled as the “Dilution plate”, 270 μL of Dey-Engley (D/E) neutralizing solution was added to column 1 and column 7. 270 μl of tryptone diluent solution was added to columns 2-6 and columns 8-12 of the Dilution MTP by a Hamilton robotic liquid handling station.
BCT test & neutralization & dilution: Bacterial stock (30 μl) was then added to columns 1 of the ‘Screening plate’ and mixed by a Hamilton robotic liquid handling station. After a contact time of 45 seconds, 30 μl of the mixtures in column 1 were transferred into the corresponding wells of column 1 of the ‘Dilution plate’. After neutralizing for 5 minutes in the D/E neutralizing solution, 30 μl of the neutralized mixtures were transferred from column 1 to column 2 of the Dilution MTP and mixed, followed by transferring 30μl of the mixtures from column 2 into column 3. This process was repeated serially diluting the bacteria suspensions across the plate to column 6. Bacterial stock (30 μl) was then added to columns 7 of the ‘Screening plate’ and mixed by a Hamilton robotic liquid handling station. After a contact time of 45 seconds, 30 μl of the mixtures in column 7 were transferred into the corresponding wells of column 7 of the ‘Dilution plate’. After neutralizing for 5 minutes in the D/E neutralizing solution, 30 μl of the mixtures were transferred from column 7 to column 8 of the Dilution MTP and mixed, followed by transferring further 30μl mixtures from column 8 into column 9. This process was repeated serially diluting the bacteria suspensions across the plate to column 12.
Plating: 30 μl volumes from each well in the Dilution MTP were transferred onto four Tryptone Soya Agar (TSA) plates. The TSA plates were allowed to stand for about two hours so that the 30 μl inocula spots could dry and the plates were then inverted and incubated overnight at 37° C. for 24 hours. After incubation, colonies were counted.
Calculating log reduction: Select the dilutions with colony counts, and calculate the viable cell counts (CFU/mL) of mixture in ‘Screening plate’, and log reduction against the control MilliQ sample was calculated.

[1] = no SCS (/), read-out: Log reduction
[2] = sodium cumene sulfonate (SCS) 3.00 % wt, read-out: Log reduction
[3] = sodium salicylate 3.00, read-out: Log reduction
[4] = sodium cumene sulfonate (SCS) 3.00 % wt

Row | Compound | log reduction at 1 % [1] | log reduction at 1 % [2] | log reduction at 1 % [3] | Log reduction (sodium salicylate 3.00) | Log reduction (no SCS (/)) | Log reduction [4] | also measured
1 | CC(C)=CCCC(C)CC#N (centres unmarked) [3,7-dimethyl-6-octenenitrile] | 0.1 | > 5 | > 5 |  |  |  | 
2 | C=CC(C)(O)CCCC(C)C (centres unmarked) [3,7-dimethyl-1-octen-3-ol] | -0.1 | > 5 | > 5 |  |  |  | 
3 | CCCC=C1OC(=O)c2ccccc21 [3-butylidene-1-benzo[C] furanone] |  |  |  | Insoluble |  |  | log reduction at 1 % (no SCS (/)): 0.2; log reduction at 1 % [4]: > 5
4 | CC(=O)OCCC1CCCCC1 [2-cyclohexylethyl acetate] | 0 | > 5 | > 5 |  |  |  | 
5 | CC(=CC=O)CCC(C)=C(C)C [3,6,7-trimethyl-2,6-octadienal] | 3.3 | > 5 |  | Insoluble |  |  | 
6 | CCCCCCCC=O [Octanal, octanal] |  |  |  | Insoluble | Insoluble | Insoluble | 
7 | cyclopropylmethyl (3Z)-3-hexenoate OR cyclopropylmethyl (3E)-3-hexenoate |  |  |  | >5 | 0.1 | >5 | 
8 | CCCCCCCC1CCC(=O)O1 (centres unmarked) [5-heptyldihydro-2(3H)-furanone] |  |  |  |  |  |  | log reduction at 0.5 %: 1.3; log reduction at 1 % (no SCS (/)): -0.2; log reduction at 1 % [4]: 4.9; log reduction at 1 % (sodium salicylate 3.00): > 5
9 | C/C=C\C(C)(O)CCC=C(C)C (centres unmarked) [(2Z)-4,8-dimethyl-2,7-nonadien-4-ol] | -0.1 | > 5 | > 5 |  |  |  | 
10 | CC(C)=CCCC(C)CCO (centres unmarked) [3,7-dimethyl-6-octen-1-ol] |  |  |  | Insoluble | Insoluble | Insoluble | log reduction at 0.5 % (read-out: Log reduction): 2.8
